The numbers were not newly measured in patent US20140023695A1, “PATCH PREPARATION” (priority 2011, published 2014), which cites them from elsewhere.

For series [1], the target named is dopamine D2 (Homo sapiens, UniProt P14416). The note with it: as compared to existing antipsychotic, haloperidol.
Series [2] concerns serotonin 5-HT2 receptor. To be noted: as compared to existing antipsychotic, haloperidol.

dopamine D2, sequence (P14416 whole entry): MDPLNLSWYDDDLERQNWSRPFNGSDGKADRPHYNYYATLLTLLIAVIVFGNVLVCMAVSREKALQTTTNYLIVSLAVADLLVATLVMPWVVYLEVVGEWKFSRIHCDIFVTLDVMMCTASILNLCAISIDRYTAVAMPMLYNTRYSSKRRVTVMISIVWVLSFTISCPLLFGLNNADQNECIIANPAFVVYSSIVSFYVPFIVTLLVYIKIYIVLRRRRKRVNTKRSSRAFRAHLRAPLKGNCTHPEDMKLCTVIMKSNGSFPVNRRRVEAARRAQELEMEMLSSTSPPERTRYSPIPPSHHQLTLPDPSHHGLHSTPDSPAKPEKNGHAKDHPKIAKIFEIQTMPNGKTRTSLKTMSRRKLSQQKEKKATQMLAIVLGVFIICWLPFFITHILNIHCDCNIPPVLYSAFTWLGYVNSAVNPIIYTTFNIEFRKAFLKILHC

On to `CCN1CCN(c2cc(-c3ccc(F)cc3)c3c(n2)CCCCCC3)CC1` [compound A, 2-(4-Ethyl-1-piperazinyl)-4-(4-fluorophenyl)-5,6,7,8,9,10-hexahydrocycloocta[b]pyridine], for which the “affinity for dopamine D2” value in series [1] is reported as “higher affinity”. In series [2], the “affinity for serotonin 5-HT2 receptor” value is given as “higher affinity”.
